Test results from patent US10723724B2, “Compounds for treating degenerative diseases of central nervous system or brain tumor, and uses thereof” (SUN YAT-SEN UNIVERSITY, priority 2016, dated 2020).

Tests used:
MAPK9 (JNK2) = molecular target: T1, MAPK9 (JNK2) (Homo sapiens, UniProt P45984); test: Kinase screening service (Life Technologies): JNK2; assay type: biochemical; conditions: average of duplicates
T1 construct: purchased Life Technologies Corporation (kinase screening service)
Description: (§1) The inhibitory effect of PT109 on SGK and INK was detected by the kinase screening commercialization service of Life Technologies Corporation.
(§2) The inhibitory effect of PT109 on other kinases including SGK and JNK was detected by the Kinase Screening Service of Life Technologies Corporation (The concentration of compound 9 was 10 μM, measurements were performed in duplicates, and the value was represented by an average) to investigate the selectivity of the compound for JNK and SGK1.

AURKC (Aurora C) = molecular target: T2, AURKC (Aurora C) (Homo sapiens, UniProt Q9UQB9); test: Kinase screening service: AURKC; assay type: biochemical; conditions: average of duplicates
T2 construct: purchased Life Technologies Corporation (Kinase Screening Service)
Description: as §2

PIK3C3 (hVPS34) = molecular target: T3, PIK3C3 (hVPS34) (Homo sapiens, UniProt Q8NEB9); test: Kinase screening service: PIK3C3; assay type: biochemical; conditions: average of duplicates
T3 construct: purchased Life Technologies Corporation (Kinase Screening Service)
Description: as §2

PKN1 (PRK1) = molecular target: T4, PKN1 (PRK1) (Homo sapiens, UniProt Q16512); test: Kinase screening service: PKN1; assay type: biochemical; conditions: average of duplicates
T4 construct: purchased Life Technologies Corporation (Kinase Screening Service)
Description: as §2

PRKCI (PKC iota) = molecular target: T5, PRKCI (PKC iota) (Homo sapiens, UniProt P41743); test: Kinase screening service: PRKCI; assay type: biochemical; conditions: average of duplicates
T5 construct: purchased Life Technologies Corporation (Kinase Screening Service)
Description: as §2

[1] = molecular target: T6, MAP3K7/MAP3K7IP1 (TAK1-TAB1) (Homo sapiens, UniProt O43318); test: Kinase screening service: MAP3K7/MAP3K7IP1; assay type: biochemical; conditions: average of duplicates
T6 construct: purchased Life Technologies Corporation (Kinase Screening Service)
Description: as §2

PTK6 (Brk) = molecular target: T7, PTK6 (Brk) (Homo sapiens, UniProt Q13882); test: Kinase screening service: PTK6; assay type: biochemical; conditions: average of duplicates
T7 construct: purchased Life Technologies Corporation (Kinase Screening Service)
Description: as §2

MAP3K5 (ASK1) = molecular target: T8, MAP3K5 (ASK1) (Homo sapiens, UniProt Q99683); test: Kinase screening service: MAP3K5; assay type: biochemical; conditions: average of duplicates
T8 construct: purchased Life Technologies Corporation (Kinase Screening Service)
Description: as §2

MAP3K3 (MEKK3) = molecular target: T9, MAP3K3 (MEKK3) (Homo sapiens, UniProt Q99759); test: Kinase screening service: MAP3K3; assay type: biochemical; conditions: average of duplicates
T9 construct: purchased Life Technologies Corporation (Kinase Screening Service)
Description: as §2

NEK6 = molecular target: T10, NEK6 (Homo sapiens, UniProt Q9HC98); test: Kinase screening service: NEK6; assay type: biochemical; conditions: average of duplicates
T10 construct: purchased Life Technologies Corporation (Kinase Screening Service)
Description: as §2

GSK3A (GSK3 alpha) = molecular target: T11, GSK3A (GSK3 alpha) (Homo sapiens, UniProt P49840); test: Kinase screening service: GSK3A; assay type: biochemical; conditions: average of duplicates
T11 construct: purchased Life Technologies Corporation (Kinase Screening Service)
Description: as §2

PDK1 = molecular target: T12, PDK1 (Homo sapiens, UniProt O15530); test: Kinase screening service: PDK1; assay type: biochemical; conditions: average of duplicates
T12 construct: purchased Life Technologies Corporation (Kinase Screening Service)
Description: as §2

NEK7 = molecular target: T13, NEK7 (Homo sapiens, UniProt Q8TDX7); test: Kinase screening service: NEK7; assay type: biochemical; conditions: average of duplicates
T13 construct: purchased Life Technologies Corporation (Kinase Screening Service)
Description: as §2

CSNK1A1 (CK1 alpha 1) = molecular target: T14, CSNK1A1 (CK1 alpha 1) (Homo sapiens, UniProt P48729); test: Kinase screening service: CSNK1A1; assay type: biochemical; conditions: average of duplicates
T14 construct: purchased Life Technologies Corporation (Kinase Screening Service)
Description: as §2

HT-22 cells = test: Effect on ROS (DHE staining) in HT-22 cells; assay type: cell-based; conditions: PT109 at 10 μM, 2 mM glutamine 10 h
Description: DHE staining was adopted to detect the formation of oxygen free radicals. The HT-22 cells were cultured in DMEM+10% fetal bovine serum and placed in a 5% CO2 incubator at 37° C. The cells were seeded in a poly-lysine-coated 24-well plate at a suitable density. After cell adherence, the PT109 separately prepared in the medium was added to the corresponding wells. Upon treatment for 30 min, 2 mM glutamine was added and treated for 10 h. The cells were harvested, and incubated with DHE dye for about 30 min. DHE dye was washed, and the fluorescence intensity of DHE was detected by a high-content system.

PIK3CG (p110 gamma) = molecular target: T15, PIK3CG (p110 gamma) (Homo sapiens, UniProt P48736); test: Kinase screening service: PIK3CG; assay type: biochemical; conditions: average of duplicates
T15 construct: purchased Life Technologies Corporation (Kinase Screening Service)
Description: as §2

PLK4 = molecular target: T16, PLK4 (Homo sapiens, UniProt O00444); test: Kinase screening service: PLK4; assay type: biochemical; conditions: average of duplicates
T16 construct: purchased Life Technologies Corporation (Kinase Screening Service)
Description: as §2

MAP3K2 (MEKK2) = molecular target: T17, MAP3K2 (MEKK2) (Homo sapiens, UniProt Q9Y2U5); test: Kinase screening service: MAP3K2; assay type: biochemical; conditions: average of duplicates
T17 construct: purchased Life Technologies Corporation (Kinase Screening Service)
Description: as §2

AKT1 (PKB alpha) = molecular target: T18, AKT1 (PKB alpha) (Homo sapiens, UniProt P31749); test: Kinase screening service: AKT1; assay type: biochemical; conditions: average of duplicates
T18 construct: purchased Life Technologies Corporation (Kinase Screening Service)
Description: as §2

PHKG1 = molecular target: T19, PHKG1 (Homo sapiens, UniProt Q16816); test: Kinase screening service: PHKG1; assay type: biochemical; conditions: average of duplicates
T19 construct: purchased Life Technologies Corporation (Kinase Screening Service)
Description: as §2

MAP3K9 (MLK1) = molecular target: T20, MAP3K9 (MLK1) (Homo sapiens, UniProt P80192); test: Kinase screening service: MAP3K9; assay type: biochemical; conditions: average of duplicates
T20 construct: purchased Life Technologies Corporation (Kinase Screening Service)
Description: as §2

SGK2 = molecular target: T21, SGK2 (Homo sapiens, UniProt Q9HBY8); test: Kinase screening service (Life Technologies): SGK2; assay type: biochemical
T21 construct: purchased Life Technologies Corporation (kinase screening service)
Source text: as §1

RPS6KA4 (MSK2) = molecular target: T22, RPS6KA4 (MSK2) (Homo sapiens, UniProt O75676); test: Kinase screening service: RPS6KA4; assay type: biochemical; conditions: average of duplicates
T22 construct: purchased Life Technologies Corporation (Kinase Screening Service)
Description: as §2

MAPK10 (JNK3) = molecular target: T23, MAPK10 (JNK3) (Homo sapiens, UniProt P53779); test: Kinase screening service (Life Technologies): JNK3; assay type: biochemical; conditions: average of duplicates
T23 construct: purchased Life Technologies Corporation (kinase screening service)
Description: as §1, §2

ULK1 = molecular target: T24, ULK1 (Homo sapiens, UniProt O75385); test: Kinase screening service: ULK1; assay type: biochemical; conditions: average of duplicates
T24 construct: purchased Life Technologies Corporation (Kinase Screening Service)
Description: as §2

HIPK1 (Myak) = molecular target: T25, HIPK1 (Myak) (Homo sapiens, UniProt Q86Z02); test: Kinase screening service: HIPK1; assay type: biochemical; conditions: average of duplicates
T25 construct: purchased Life Technologies Corporation (Kinase Screening Service)
Description: as §2

NTRK1 (TRKA) = molecular target: T26, NTRK1 (TRKA) (Homo sapiens, UniProt P04629); test: Kinase screening service: NTRK1; assay type: biochemical; conditions: average of duplicates
T26 construct: purchased Life Technologies Corporation (Kinase Screening Service)
Description: as §2

MKNK2 (MNK2) = molecular target: T27, MKNK2 (MNK2) (Homo sapiens, UniProt Q9HBH9); test: Kinase screening service: MKNK2; assay type: biochemical; conditions: average of duplicates
T27 construct: purchased Life Technologies Corporation (Kinase Screening Service)
Description: as §2

[2] = system: other kinases including SGK and JNK; test: Kinase selectivity of PT109 (whole panel); assay type: biochemical; conditions: 10 μM, kinase panel of Table 2
Description: as §2

PRKCH (PKC eta) = molecular target: T28, PRKCH (PKC eta) (Homo sapiens, UniProt P24723); test: Kinase screening service: PRKCH; assay type: biochemical; conditions: average of duplicates
T28 construct: purchased Life Technologies Corporation (Kinase Screening Service)
Description: as §2

FLT1 (VEGFR1) = molecular target: T29, FLT1 (VEGFR1) (Homo sapiens, UniProt P17948); test: Kinase screening service: FLT1; assay type: biochemical; conditions: average of duplicates
T29 construct: purchased Life Technologies Corporation (Kinase Screening Service)
Description: as §2

TLK1 = molecular target: T30, TLK1 (Homo sapiens, UniProt Q9UKI8); test: Kinase screening service: TLK1; assay type: biochemical; conditions: average of duplicates
T30 construct: purchased Life Technologies Corporation (Kinase Screening Service)
Description: as §2

STK22D (TSSK1) = molecular target: T31, STK22D (TSSK1) (Homo sapiens, UniProt Q9BXA7); test: Kinase screening service: STK22D; assay type: biochemical; conditions: average of duplicates
T31 construct: purchased Life Technologies Corporation (Kinase Screening Service)
Description: as §2

EGFR (ErbB1) = molecular target: T32, EGFR (ErbB1) (Homo sapiens, UniProt P00533); test: Kinase screening service: EGFR; assay type: biochemical; conditions: average of duplicates
T32 construct: purchased Life Technologies Corporation (Kinase Screening Service)
Description: as §2

T13 sequence (Q8TDX7 whole entry): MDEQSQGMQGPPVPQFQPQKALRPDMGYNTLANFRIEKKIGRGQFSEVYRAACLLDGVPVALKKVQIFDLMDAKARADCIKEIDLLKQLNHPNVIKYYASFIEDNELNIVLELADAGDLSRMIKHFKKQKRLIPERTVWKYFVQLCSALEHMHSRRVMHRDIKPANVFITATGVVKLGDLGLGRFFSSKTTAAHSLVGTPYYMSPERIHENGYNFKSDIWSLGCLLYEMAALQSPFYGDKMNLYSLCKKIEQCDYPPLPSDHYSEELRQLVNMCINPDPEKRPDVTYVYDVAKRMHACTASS
T1 sequence (P45984 whole entry): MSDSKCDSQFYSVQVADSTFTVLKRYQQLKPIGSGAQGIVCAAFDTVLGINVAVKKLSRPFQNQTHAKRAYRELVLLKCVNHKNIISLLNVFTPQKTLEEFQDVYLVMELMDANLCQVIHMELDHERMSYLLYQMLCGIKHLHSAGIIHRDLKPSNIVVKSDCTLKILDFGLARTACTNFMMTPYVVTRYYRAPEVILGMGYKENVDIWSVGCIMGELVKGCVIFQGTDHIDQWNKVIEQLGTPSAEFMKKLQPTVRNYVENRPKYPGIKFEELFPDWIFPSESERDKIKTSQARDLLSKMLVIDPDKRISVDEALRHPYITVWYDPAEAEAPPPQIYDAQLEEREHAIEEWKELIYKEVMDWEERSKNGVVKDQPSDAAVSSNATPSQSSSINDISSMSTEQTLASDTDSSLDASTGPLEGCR
T4 sequence (Q16512 whole entry): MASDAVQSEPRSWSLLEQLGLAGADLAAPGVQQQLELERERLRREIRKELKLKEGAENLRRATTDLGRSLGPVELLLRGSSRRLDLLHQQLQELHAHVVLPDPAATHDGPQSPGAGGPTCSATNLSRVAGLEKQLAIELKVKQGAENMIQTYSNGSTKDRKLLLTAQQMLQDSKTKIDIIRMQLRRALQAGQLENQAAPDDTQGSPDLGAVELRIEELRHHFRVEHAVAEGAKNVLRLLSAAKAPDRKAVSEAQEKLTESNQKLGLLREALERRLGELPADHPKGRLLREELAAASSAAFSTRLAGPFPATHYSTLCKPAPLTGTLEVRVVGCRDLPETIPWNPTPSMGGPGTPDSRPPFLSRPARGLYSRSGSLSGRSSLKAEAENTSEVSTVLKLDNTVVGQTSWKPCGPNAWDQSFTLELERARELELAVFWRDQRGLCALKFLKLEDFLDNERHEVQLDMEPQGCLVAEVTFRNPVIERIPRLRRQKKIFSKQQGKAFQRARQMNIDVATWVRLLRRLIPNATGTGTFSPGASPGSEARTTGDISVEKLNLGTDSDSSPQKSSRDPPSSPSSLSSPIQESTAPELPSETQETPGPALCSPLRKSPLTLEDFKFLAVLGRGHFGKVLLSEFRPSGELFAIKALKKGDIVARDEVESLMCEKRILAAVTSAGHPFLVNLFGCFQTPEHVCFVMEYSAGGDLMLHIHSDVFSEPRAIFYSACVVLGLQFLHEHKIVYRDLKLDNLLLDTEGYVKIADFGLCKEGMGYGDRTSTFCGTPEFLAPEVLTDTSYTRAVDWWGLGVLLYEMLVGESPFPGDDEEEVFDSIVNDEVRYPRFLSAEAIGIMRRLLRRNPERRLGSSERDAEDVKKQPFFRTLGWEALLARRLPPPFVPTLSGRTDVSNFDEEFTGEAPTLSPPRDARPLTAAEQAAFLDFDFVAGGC
T5 sequence (P41743 whole entry): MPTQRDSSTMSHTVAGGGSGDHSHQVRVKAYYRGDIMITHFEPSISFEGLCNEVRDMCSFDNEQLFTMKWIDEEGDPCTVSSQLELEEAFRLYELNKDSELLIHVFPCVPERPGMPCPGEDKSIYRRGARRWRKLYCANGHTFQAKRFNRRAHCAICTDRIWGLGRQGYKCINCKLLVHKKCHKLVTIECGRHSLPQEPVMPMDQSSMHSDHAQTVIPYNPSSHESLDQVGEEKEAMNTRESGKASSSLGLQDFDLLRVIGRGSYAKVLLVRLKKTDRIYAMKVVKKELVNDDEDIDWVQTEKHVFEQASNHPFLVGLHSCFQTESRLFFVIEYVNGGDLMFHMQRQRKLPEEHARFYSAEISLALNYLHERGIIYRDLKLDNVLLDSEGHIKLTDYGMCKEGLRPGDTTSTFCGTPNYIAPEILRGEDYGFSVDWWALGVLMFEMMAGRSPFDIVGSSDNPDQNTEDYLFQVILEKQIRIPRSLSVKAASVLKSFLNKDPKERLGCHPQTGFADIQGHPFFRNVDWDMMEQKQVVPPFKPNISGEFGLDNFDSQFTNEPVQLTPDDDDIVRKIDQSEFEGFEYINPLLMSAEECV
T32 sequence (P00533 25-1210): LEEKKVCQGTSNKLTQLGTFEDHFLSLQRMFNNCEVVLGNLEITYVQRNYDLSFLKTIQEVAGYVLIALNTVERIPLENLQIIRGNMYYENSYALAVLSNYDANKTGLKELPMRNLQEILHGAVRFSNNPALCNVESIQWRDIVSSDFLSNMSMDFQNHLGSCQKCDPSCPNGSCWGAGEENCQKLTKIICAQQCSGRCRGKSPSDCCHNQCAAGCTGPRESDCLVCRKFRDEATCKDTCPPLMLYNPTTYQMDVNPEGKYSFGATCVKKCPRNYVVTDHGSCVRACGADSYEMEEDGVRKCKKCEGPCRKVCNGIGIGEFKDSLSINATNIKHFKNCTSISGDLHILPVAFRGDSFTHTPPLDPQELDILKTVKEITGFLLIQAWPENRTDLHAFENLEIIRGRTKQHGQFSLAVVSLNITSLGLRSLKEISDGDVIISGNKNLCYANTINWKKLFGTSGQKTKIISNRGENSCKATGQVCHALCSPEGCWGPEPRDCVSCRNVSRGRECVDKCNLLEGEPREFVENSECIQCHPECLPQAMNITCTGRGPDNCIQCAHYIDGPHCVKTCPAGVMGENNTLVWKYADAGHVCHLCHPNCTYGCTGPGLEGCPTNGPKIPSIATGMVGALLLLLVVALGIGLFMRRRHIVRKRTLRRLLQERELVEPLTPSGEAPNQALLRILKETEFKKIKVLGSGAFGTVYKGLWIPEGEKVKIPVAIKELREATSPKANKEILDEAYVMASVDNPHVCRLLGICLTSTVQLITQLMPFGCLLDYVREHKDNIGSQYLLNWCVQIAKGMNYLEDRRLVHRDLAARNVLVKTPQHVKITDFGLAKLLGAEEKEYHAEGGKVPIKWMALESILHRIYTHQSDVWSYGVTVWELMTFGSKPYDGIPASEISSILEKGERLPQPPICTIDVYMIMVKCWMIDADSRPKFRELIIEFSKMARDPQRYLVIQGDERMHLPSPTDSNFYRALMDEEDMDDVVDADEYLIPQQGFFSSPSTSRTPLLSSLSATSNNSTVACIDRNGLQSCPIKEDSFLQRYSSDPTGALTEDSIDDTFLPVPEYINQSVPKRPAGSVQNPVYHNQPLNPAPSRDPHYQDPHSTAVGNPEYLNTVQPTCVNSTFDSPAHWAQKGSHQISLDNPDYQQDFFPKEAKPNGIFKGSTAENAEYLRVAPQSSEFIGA
T3 sequence (Q8NEB9 whole entry): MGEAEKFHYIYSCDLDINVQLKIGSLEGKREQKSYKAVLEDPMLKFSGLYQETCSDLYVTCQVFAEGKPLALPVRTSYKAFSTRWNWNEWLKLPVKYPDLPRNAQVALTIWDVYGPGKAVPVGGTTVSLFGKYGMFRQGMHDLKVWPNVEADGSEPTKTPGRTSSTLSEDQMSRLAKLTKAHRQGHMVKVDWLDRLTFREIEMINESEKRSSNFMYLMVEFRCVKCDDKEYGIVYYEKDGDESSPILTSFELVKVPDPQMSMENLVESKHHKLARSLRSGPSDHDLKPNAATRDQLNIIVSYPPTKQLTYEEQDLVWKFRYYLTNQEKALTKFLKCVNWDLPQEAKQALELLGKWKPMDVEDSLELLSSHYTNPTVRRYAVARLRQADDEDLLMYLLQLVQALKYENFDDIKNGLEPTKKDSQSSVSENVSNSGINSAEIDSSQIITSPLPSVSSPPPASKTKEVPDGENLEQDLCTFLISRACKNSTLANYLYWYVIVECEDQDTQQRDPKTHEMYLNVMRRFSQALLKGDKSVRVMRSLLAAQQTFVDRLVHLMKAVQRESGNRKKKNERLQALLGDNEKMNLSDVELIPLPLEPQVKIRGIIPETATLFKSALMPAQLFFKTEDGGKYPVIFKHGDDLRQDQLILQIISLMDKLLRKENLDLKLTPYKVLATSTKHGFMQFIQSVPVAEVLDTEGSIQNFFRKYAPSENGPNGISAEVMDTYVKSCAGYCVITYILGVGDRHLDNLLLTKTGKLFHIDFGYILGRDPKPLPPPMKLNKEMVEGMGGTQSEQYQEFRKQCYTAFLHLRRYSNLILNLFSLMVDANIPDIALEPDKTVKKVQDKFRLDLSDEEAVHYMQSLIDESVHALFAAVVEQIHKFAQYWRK
T23 sequence (P53779 whole entry): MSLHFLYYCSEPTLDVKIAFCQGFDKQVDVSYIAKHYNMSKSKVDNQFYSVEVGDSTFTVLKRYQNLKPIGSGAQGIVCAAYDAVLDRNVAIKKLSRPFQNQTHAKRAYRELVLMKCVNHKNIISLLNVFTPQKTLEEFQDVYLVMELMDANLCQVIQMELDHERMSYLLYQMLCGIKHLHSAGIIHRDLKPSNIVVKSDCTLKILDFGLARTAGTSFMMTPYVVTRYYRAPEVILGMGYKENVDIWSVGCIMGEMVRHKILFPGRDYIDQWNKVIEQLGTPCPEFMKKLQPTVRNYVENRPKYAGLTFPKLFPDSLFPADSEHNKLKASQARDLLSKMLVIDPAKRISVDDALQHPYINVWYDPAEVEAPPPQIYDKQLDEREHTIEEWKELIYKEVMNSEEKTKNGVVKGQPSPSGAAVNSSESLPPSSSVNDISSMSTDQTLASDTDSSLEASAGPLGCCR

inhibition at 10 µM (MAPK9 (JNK2)): 91%
inhibition at 10 µM (AURKC (Aurora C)): 5%
inhibition at 10 µM (PIK3C3 (hVPS34)): 11%
inhibition at 10 µM (PKN1 (PRK1)): 16%
inhibition at 10 µM (PRKCI (PKC iota)): -14%
inhibition at 10 µM [1]: 39%
inhibition at 10 µM (PTK6 (Brk)): 7%
inhibition at 10 µM (MAP3K5 (ASK1)): 9%
inhibition at 10 µM (MAP3K3 (MEKK3)): 3%
inhibition at 10 µM (NEK6): 3%
inhibition at 10 µM (GSK3A (GSK3 alpha)): 41%
inhibition at 10 µM (PDK1): 5%
inhibition at 10 µM (NEK7): 2%
inhibition at 10 µM (CSNK1A1 (CK1 alpha 1)): 3%
inhibition at 10 µM (PIK3CG (p110 gamma)): 9%
inhibition at 10 µM (PLK4): 35%
inhibition at 10 µM (MAP3K2 (MEKK2)): 10%
inhibition at 10 µM (AKT1 (PKB alpha)): 22%
inhibition at 10 µM (PHKG1): 10%
inhibition at 10 µM (MAP3K9 (MLK1)): 2%
IC50 (SGK2): 5.6 µM
inhibition at 10 µM (RPS6KA4 (MSK2)): 28%
inhibition at 10 µM (MAPK10 (JNK3)): 90%
inhibition at 10 µM (ULK1): 26%
inhibition at 10 µM (HIPK1 (Myak)): 0%
inhibition at 10 µM (NTRK1 (TRKA)): 35%
inhibition at 10 µM (MKNK2 (MNK2)): 26%
specificity for SGK1 and JNK [2]: better specificity for SGK1 and JNK
inhibition at 10 µM (PRKCH (PKC eta)): -17%
inhibition at 10 µM (FLT1 (VEGFR1)): 3%
inhibition at 10 µM (TLK1): 20%
inhibition at 10 µM (STK22D (TSSK1)): -2%
inhibition at 10 µM (EGFR (ErbB1)): -6%
Compound: O=C(CCCCC1CCSS1)NC1CCC(Nc2cccc3cnccc23)CC1 (stereo not shown) [PT109, 5-(1,2-dithiolan-3-yl)-N-(4-(isoquinolin-5-ylamino)cyclohexyl) pentanamide]
glutamine-induced ROS elevation (DHE fluorescence) (HT-22 cells): significantly reduced
